{"source": "patent US7498406B2", "about": "“Substantially cell membrane impermeable compound and use thereof” (priority 1999, dated 2009)", "biological_target": "T1, Thioredoxin (Homo sapiens, UniProt P10599)", "T1 construct": "purchased American Diagnostica, Greenwich, Conn; host or cells: E. coli", "T1 sequence (P10599 whole entry, the tested form may be a part)": "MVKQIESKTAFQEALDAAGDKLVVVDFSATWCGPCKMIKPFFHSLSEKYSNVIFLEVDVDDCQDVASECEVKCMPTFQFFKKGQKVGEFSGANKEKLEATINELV", "experiment": "Inhibition of thioredoxin-mediated reduction of 70 kDa fibronectin fragment", "format": "biochemical", "conditions": "10 μM GSAO, 1 μM thioredoxin, 10 minutes", "procedure": "FIG. 13. Inhibition of thioredoxin by GSAO. Thioredoxin (1 μM) was incubated with GSAO (0, 1 or 10 μM) for 10 minutes at room temperature in 20 mM Hepes, 0.14 M NaCl, pH 7.4 buffer. The 70 kDa fibronectin fragment (10 μg per mL) was added and incubated for 5 minutes at room temperature. The reactions were labelled with MPB (100 μM) for 10 minutes at 37° C. The MPB was quenched with GSH (200 μM) for 10 minutes at 37° C. followed by iodoacetamide (400 μM) for 10 minutes at room temperature. The MPB-labelled 70 kDa fragment was resolved on 5-15% SDS-PAGE, transferred to PVDF membrane and the MPB detected by blotting with streptavidin peroxidase. The positions of Mr markers are shown at left.\nIt was observed that thioredoxin reduced one or more protein disulfide bonds in the 70 kDa N-terminal fragment of fibronectin."}
{"smiles": "NC(CCC(=O)NC(CSCC(=O)Nc1ccc([As]=O)cc1)C(=O)NCC(=O)O)C(=O)O", "note": "(stereo not shown) [GSAO, 4-(N-(S-glutathionylacetyl)amino)-phenylarsenoxide]", "values": [{"measurement": "inhibition of thioredoxin activity", "result": "completely inhibited"}]}
